Here are results for 3 compounds from publication PMC10985536, “Aqueous solution and solid-state behaviour of L-homophenylalanine: experiment, modelling, and DFT calculations” (RSC Advances, 2024).

Data set [1] can be described thus: Aqueous solubility of L-Hpa as a function of temperature and pH (isothermal equilibration, HPLC). Format: physicochemical. The note with it: for Solubility in water: pure water (at pI). As for the experimental part:
HPLC analysis was performed via a Dionex UltiMate3000 system manufactured by Thermo Scientific, Waltham. Two different HPLC methods were employed to quantify the L-Hpa concentration. The first method relies on a 150 mm long Crownpak (CR+) column (Daicel Corporation, Osaka) with a diameter of 4 mm and a particle size of 5 μm. Measurement took place at 298 K with an eluent flow rate of 0.8 mL min^−1 and an injection volume of 1 μL. Detection was achieved by light absorbance at 200 nm. Aqueous solution of perchloric acid with a pH of 2 was used as eluent. This method was developed in our lab but a similar one was employed in the literature.[14] The second method is based on another work,[31] where a Chirobiotic T column (Astec) with a length of 250 mm, a diameter of 4.6 mm and a particle size of 5 μm was utilized. 0.5 mL per L acetic acid was added to 0.01 mol per L ammonium acetate solution, which was then mixed with methanol in the volumetric ratio of 30/70 to produce the eluent. Measurements were done with an eluent flow rate of 0.5 mL min^−1 by adding 10 μL of sample and detection of light absorbance at 210 nm. Calibration was obtained by dissolving known amounts of L-Hpa in eluent and correlating the measured light absorbance to the concentration by linear regression.
pH measurements were performed with an MP225 pH meter with an InLab Micro Pro probe manufactured by Mettler Toledo, USA. The system is calibrated in regular intervals and each day the accuracy was checked by measuring pH standards at room temperature. At 298 K the pH values were stable and used for the evaluation, while for 328 K either the stable value or the value after 60 s was accepted to reduce the influence of cooling (and potential nucleation).
Equilibrium experiments at isothermal conditions were performed in tempered double jacketed glass reactors at different temperatures. First, L-Hpa, was mixed with water and dissolved completely by heating the suspension. The samples of about 10 mL were then brought to the target temperature at which they were allowed to equilibrate for at least 48 h while being stirred continuously. […] For selected samples at both saturation temperatures (298 K and 328 K), a solid–liquid separation was conducted by vacuum filtration and the obtained solids were analysed by HPLC and PXRD.
Most experiments for determination of pH-dependent solubilities were performed in the Crystalline multi reactor system, manufactured by Technobis Crystallization Systems, The Netherlands. […] Shortly before complete dissolution was detected visually, the buffer addition was stopped. […] On the next day, stirring was stopped, liquid samples were withdrawn and the pH was recorded. […]

The conditions of data set [2]: heating 2 K min^-1, helium.
Procedure: TG was performed with a Sensys Evo twin type instrument manufactured by Setaram Instrumentation, France. Grinded samples of about 4 to 7 mg L-Hpa were weighed into open 100 μL aluminium crucibles and analysed with a linear temperature program under a helium (5.0) atmosphere. For the measurement, the following heating program was employed: starting at 298 K heating to 673 K with 2 K min^−1 and subsequent cooling to 298 K with 5 K min^−1. […] Temperature calibration of the instrument is performed regularly using the melting temperatures of highly pure indium, tin, zinc and lead at different heating rates.
On the set-up of data set [3]: method as in PMID 17874082. The settings on record: cited from earlier work.

SMILES strings stand for the structures. “And” between values parts separate entries of the source, which are not always exact repeats. Equal values may be shown once. Read-outs that look alike come from different tables or passages of the source.

In the case of `N[C@@H](CCc1ccccc1)C(=O)O` [L-Hpa, L-homophenylalanine], the Solubility in water was 0.0075 mol% in data set [1] (298 K); 0.0153 mol% and 0.015 mol% in data set [1] (328 K). In data set [1] (pH 1.07, 328 K, perchloric acid buffer), this compound displayed a Highest solubility observed of 0.278 mol%. Moreover, in data set [1] (pH 1.5 or 10.5), the “Solubility increase at sufficiently low or high pH” value is listed as “increase almost twentyfold”. Also, the TG mass loss entry in data set [2] (at about 520 K) was “ca. 10 wt%”; in data set [2] (up to about 560 K) it was 95 wt%.

For the compound `N[C@@H](Cc1ccccc1)C(=O)O` [Phenylalanine], in data set [3], the “pKa(2) (NH3), experimental” value is 9.17 ± 0.06.

Consider `N[C@@H](Cc1c[nH]cn1)C(=O)O` [histidine], for which, in data set [3], the “pKa(1) (COOH), experimental” value was 1.64 ± 0.45 and the “pKa(2) (NH3), experimental” value is 9.14 ± 0.08.
